# Columns and labels:
# ELAM-1 = target: T1, ELAM-1 (Homo sapiens, UniProt P16581); test: Cell binding assay: L1-2^ELAM-1 cells on glass slides coated with synthetic glycoconjugates; format: cell-based; settings: 25 min RT, 50 rpm
# T1 construct: expressed in transfected cells; host or cells: murine pre-B cell line L1-2, vector pMRB101 derivative (pMRB107), hCMV promoter
# T1 sequence (P16581 22-610): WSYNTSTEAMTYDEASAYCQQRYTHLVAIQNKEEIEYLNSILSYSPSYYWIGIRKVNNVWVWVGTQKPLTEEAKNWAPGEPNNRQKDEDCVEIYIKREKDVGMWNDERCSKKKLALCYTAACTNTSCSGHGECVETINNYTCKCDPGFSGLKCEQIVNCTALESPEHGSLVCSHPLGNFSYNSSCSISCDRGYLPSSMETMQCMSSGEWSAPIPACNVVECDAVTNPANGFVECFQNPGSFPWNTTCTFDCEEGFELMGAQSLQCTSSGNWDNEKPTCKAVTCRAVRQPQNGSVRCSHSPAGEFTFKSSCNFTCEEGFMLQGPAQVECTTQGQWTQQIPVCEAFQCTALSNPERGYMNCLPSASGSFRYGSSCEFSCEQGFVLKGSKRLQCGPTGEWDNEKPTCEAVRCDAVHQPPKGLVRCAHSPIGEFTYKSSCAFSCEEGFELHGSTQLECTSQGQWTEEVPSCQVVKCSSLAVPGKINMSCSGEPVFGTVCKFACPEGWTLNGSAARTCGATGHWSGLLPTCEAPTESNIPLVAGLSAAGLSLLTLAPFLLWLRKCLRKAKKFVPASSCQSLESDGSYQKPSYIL
# Method: L1-2/pMRB107 cells (L1-2^ELAM-1) were prepared by transfecting the ELAM-1 gene into the murine pre-B cell line L1-2 (Gallatin et al. (1983) Nature 35 304:30-34). A cDNA clone encoding ELAM-1 was obtained from a CDNA library made from activated human umbilical vein endothelial cell cultures by polymerase chain reaction amplification. The ELAM-1 gene was inserted downstream of the hCMV promoter in pMRB101 [a derivative of EE6 which contains the E. coli gpt gene (Mulligan and Berg (1981) Proc. Nat'l. Acad. Sci. USA 78:2072; Stephens and Corbett (1989) N.A.R. 17:7110)]. DNA was introduced into L1-2 cells by electroporation and the cells selected for resistance to mycophenolic acid. A population of cells staining brightly for ELAM-1 were selected by FACS and cloned by limiting dilution. These cells are ELAM-1^hi LFA-1^mod CD45^hi CD44^neg LECAM-1^neg, differing from the parent cell line or control vector transfectants only in their expression of ELAM-1. L1-2/pMRB101 (L1-2^vector) cells are a similarly transformed derivative of L1-2 transfected with pMRB101 and lacking ELAM-1 expression.
# One hundred microliter samples of each synthetic glycoconjugate in phosphate buffered saline (PBS), pH 7.2, were absorbed onto glass wells of 8-chamber slides (LabTek) for two hours at RT. For some experiments glass slides were pre-coated with rabbit anti-human serum albumin (Sigma) at 200 μg/ml overnight at 4° C. and washed with PBS prior to the addition of the glycoconjugate. After blocking with 5% NBS/ 10 mM HEPES/Dulbecco's Modified Eagles Medium (DMEM), pH 7.0 (CM), L1-2^ELAM-1 or L1-2^vector cells were applied to each well (1.5×10^6/0.15 ml in CM). After a 25 minute incubation at RT on a rotating shaker at 50 rpm, the tops of the wells were removed and the slides washed 3× in DMEM and then fixed by incubation in 1.5% glutaral-dehyde (Kodak)/DMEM. Three to six 100× fields were counted for each data point and the average and standard error are reported. Data reported are from representative experiments which were performed 2-5 times with similar results.
# mouse LECAM-1 = target: T2, mouse LECAM-1 (Mus musculus, UniProt P18337); test: Cell binding assay: mouse lymphocytes on coated synthetic glycoconjugates; format: cell-based; settings: mesenteric lymph node lymphocytes, 3×10^6 cells in 0.15 ml
# T2 construct: Mouse lymphocytes isolated from mesenteric lymph nodes were also tested; endogenous in cells; host or cells: primary mouse lymphocytes from mesenteric lymph nodes
# T2 sequence (P18337 39-372): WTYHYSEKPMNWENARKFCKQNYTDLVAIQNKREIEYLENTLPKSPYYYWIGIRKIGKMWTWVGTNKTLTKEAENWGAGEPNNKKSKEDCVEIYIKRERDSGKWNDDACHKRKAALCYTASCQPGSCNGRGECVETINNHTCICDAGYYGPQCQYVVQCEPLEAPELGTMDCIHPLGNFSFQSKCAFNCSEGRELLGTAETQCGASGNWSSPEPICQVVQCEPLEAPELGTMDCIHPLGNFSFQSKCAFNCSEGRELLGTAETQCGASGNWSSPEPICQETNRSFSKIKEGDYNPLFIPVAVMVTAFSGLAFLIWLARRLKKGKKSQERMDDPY
# Method: Cell binding assays. One hundred microliter samples of each synthetic glycoconjugate in phosphate buffered saline (PBS), pH7.2, were absorbed onto glass wells of 8-chamber slides (LabTek) for two hours at RT. After blocking with 5% NBS, 10 mM HEPES, Dulbecco's Modified Eagles Medium (DMEM), pH7.0 (CM), L1-2^LECAM-1, L1-2^vector or L1-2^ELAM-1 cells were applied to each well (1.5×10^6 cells in 0.15 ml CM). Mouse lymphocytes isolated from mesenteric lymph nodes were also tested at 3×10^6 cells in 0.15 ml. In some cases, cells were preincubated with monoclonal antibody MEL-14 (Gallatin et al., 1983, supra) at 150 μg/ml/10^7 cells and washed prior to testing. After a 25 minute incubation at RT on a rotating shaker at 50 rpm, the tops of the wells were removed and the slides washed 3× in DMEM and then fixed by incubation in 1.5% glutaraldehyde (Kodak) in DMEM. Three to six 100× fields were counted for each data point and the average and standard error are reported. Data reported are from representative experiments which were performed 2-5 times with similar results.
# antibody 1H10 = test: Direct binding ELISA of antibody 1H10 to solid-phase neoglycoproteins; set-up: species or system mouse; settings: 100 ng neoglycoprotein per well, antibody 10 μg/ml
# Method: Synthetic glycoproteins were coated onto microtiter plates by filling each well with 100 ng of the neoglycoprotein in 100 μl of 0.15 M sodium chloride, 0.01 M sodium phosphate, 0.1% sodium azide, pH 7.4, (PBS-azide) overnight at 4° C. Standard enzyme-linked immunoassays (ELISA) were then performed on the solid phase carbohydrate structures using the appropriate antibody diluted to 10 μg/ml.
binding of L1-2^ELAM-1 cells to coated glycoconjugate (ELAM-1),binding of mouse lymphocytes to coated neoglycoconjugate (mouse LECAM-1),direct binding of antibody 1H10 to neoglycoprotein (antibody 1H10),Substance
did not bind,not,weakly crossreacts,Neu5Acα2-3Galβ1-3GlcNAcβ1-3Galβ1-4(Glc) [LSTa]
did not bind,–,–,Neu5Acα2-6Galβ1-4GlcNAcβ1-3Galβ1-4(Glc) [LSTc]
did not bind,not,–,NeuNAc α2-3Gal βl-4 (Glc) [3′SL]
did not bind,not,–,NeuNAc α2-6Gal βl-4 (Glc) [6′SL]
